In patent US7592326B2, “Method for stimulating the immune, inflammatory or neuroprotective response” (priority 2004, dated 2009):

Key:
basophils = test: SOCS expression in basophils (real-time PCR); format: cell-based, human
Protocol: Whether or not cyclic dinucleotides affected induction of SOCS (Suppresser Of Cytokine Synthesis) expression in basophils treated with CDN's was then tested. […] Cells were treated for 18 h, total RNA isolated, and RT-PCR performed for SOCS-1, SOCS-3, and the HPRT housekeeping gene. The fact that cGpGp also induces SOCS-1 may explain why some inhibition of IL-3-induced IL-13 secretion is observed with this cyclic dinucleotide analog. […] In the current IL-13 assay, the cyclic dinucleotide is added simultaneously with IL-3. The TBDMS-cGpGp likely induces SOCS-1 expression faster and thus accounts for greater inhibition of IL-13. […] While modest inhibitory activity with cGpGp was observed, evidence that cGpGp induces SOCS-1 and sometimes better than TBDMS-cGpGp at this particular time point was observed. These differences might be explained by kinetics and it may be that SOCS gene expression would be higher following TBDMS-cGpGp treatment when examined at an earlier time point.

S. pneumoniae strain D39 = test: Mouse pneumococcal pneumonia (proposed); format: in vivo; conditions: 200 nmol 24- and 48 hours prior; 1×10^5 CFU D39
S. aureus Newbould 305 = test: Mouse model of S. aureus-induced mastitis, prophylactic pre-treatment; format: in vivo; conditions: for reduction of the mean bacterial CFU in tissues compared to untreated control: lactating CD-1 mice, 10 h infection
Protocol: The well-characterized mouse model of S. aureus-induced mastitis (see Brouillette et al., 2005 for review) was used to evaluate the capacity of c-di-GMP to act as a prophylactic agent. S. aureus is a Gram-positive bacterial pathogen. The protocol used here is similar to that described in a previous study (Brouillette et al., 2005), except that the c-di-GMP molecule was administered before infection of mammary glands, instead of after, in order to evaluate its prophylactic capacity. […] For inoculation, 100 cfu of S. aureus Newbould 305 (ATCC 29740) were injected in each gland and the colonization allowed for 10 h. Raw bacterial cfu counts obtained after plating serial logarithmic dilutions of mammary gland homogenates were transformed in base-10 logarithm values. The experiment was repeated and data combined for a total of 9 mice (18 glands) per group. Since values passed the normality test, bacterial counts were analyzed for statistical significance using the One-way analysis of variance test combined with the Tukey post test (GraphPad Instat, version 3.06). The institutional ethics committee on animal experimentation of the Faculté des sciences of Université de Sherbrooke approved these experiments and were carried out following the guidelines of the Canadian Council on Animal Care.

[1] = tested on: Influenza virus B/Yamanashi/166/98; test: Influenza vaccination model in mice, c-diGMP as adjuvant (proposed); format: in vivo; conditions: two vaccinations 3 weeks apart
[2] = tested on: influenza virus A/Puerto Rico/8/34 (H1N1, PR8); conditions: in vivo
[3] = tested on: cytokine mRNA in whole lung; test: Cytokine mRNA levels in whole lung homogenates (quantitative PCR); format: in vivo, Balb/c mice
S. aureus = conditions: cited from earlier work
[4] = tested on: autologous or allogeneic PBMC; test: Mixed leukocyte reaction with irradiated DCs ([3H]thymidine incorporation); format: cell-based, human; conditions: 100 μM c-di-GMP-treated immature DCs
Protocol: DCs were stimulated for 24 h with c-di-GMP or LPS and were then extensively washed and suspended in RPMI 1640 supplemented with 10% human serum, L-glutamine, and penicillin/streptomicin, irradiated (3,000 rad from a ^137Cs source) and added in graded doses to 1×10^5 responder T cells in 96 flat-bottom microplates. Responder cells were autologous or allogeneic PBMC. After 5 days, cultures were pulsed for 18 h with 0.5 µCi/well of [^3H]thymidine. Cells were then harvested onto glass fiber filters, and [^3H]thymidine incorporation was measured by liquid scintillation spectroscopy.

[5] = 200 nmol intramammary 12 h and 6 h prior to challenge, P<0.001

## Nc1nc(=O)c2ncn([C@@H]3OC4COP(=O)(O)O[C@H]5[C@@H](O)[C@H](n6cnc7c(=O)nc(N)[nH]c76)O[C@@H]5COP(=O)(O)OC4C3O)c2[nH]1 (some centres unmarked) [c-di-GMP, Bis(3′→5′)-cyclic diguanylic acid]
basophils
  time of SOCS mRNA peak: ~18 h
basophils; 18 h treatment
  SOCS-1 mRNA: induced
S. pneumoniae strain D39
  bacterial counts in the lungs: decreased bacterial counts
S. aureus Newbould 305; 50 nmol intramammary 12 h and 6 h prior to challenge, P<0.05
  reduction of the mean bacterial CFU in tissues compared to untreated control: 1.5 log
S. aureus Newbould 305; [5]
  reduction in CFUs in tissues: 10,000 fold
  reduction of the mean bacterial CFU in tissues compared to untreated control: 3.8 log
[1]
  survival after challenge: greater survival
[2]
  outcome compared to control mice: increased survival, less weight loss
[3]; 24 and 48 hrs post bacterial challenge
  IL-12 p40 levels vs control c-GMP: increased
[3]; 24 hr post Klebsiella challenge, p<0.05, FIG. 17D
  MIP-2 mRNA, increase over infected control (c-GMP): 2 fold
[3]; 24 hrs post K. pneumoniae, p<0.05
  IP-10 and IFN-gamma mRNA levels vs control c-GMP: significantly higher
[3]; i.n. pre-treatment, time 0 (pre-infection)
  type 1 cytokines IL-12 p40, IFN-gamma, and IP-10 in the lungs: induction
[3]; pretreatment, data not shown
  induction of TNF-α in response to i.t. bacterial administration: did not significantly alter
S. aureus; intramammary, at time of challenge and 4 h post-inoculation
  colonization of the mouse mammary glands by S. aureus: significantly decreased
S. aureus; previously published studies
  in-vivo dose giving maximal benefit: 200 nmoles/animal
[4]; FIG. 4A
  autologous T cell proliferation, increase compared to untreated DCs: five-fold
[4]; FIG. 4B
  heterologous T cell proliferation, increase compared to untreated DCs: two-fold
